Data taken from publication PMC4501547, “Virtual and In Vitro Screens Reveal a Potential Pharmacophore that Avoids the Fibrillization of Aβ1–42” (PLoS ONE, 2015).

How the values were obtained:
[1] = molecular target: T1, Aβ1–42 (amyloid β peptide, 42 residues) (Homo sapiens, UniProt P05067); assay: Thioflavin T fluorescence fibrillization assay; format: biochemical
T1 construct: gene APP; wild-type 42-residue peptide Abeta 1-42, cut from amyloid-beta precursor protein (APP770 residues 672-713); lyophilized, chloride salt, purchased from Calbiochem; non-fibrillated at start, aggregating during the assay

[2] = molecular target: T1, Aβ1–42 (amyloid β peptide, 42 residues); assay: Thioflavin T fluorescence fibrillization assay; format: biochemical; remark: listed apart in the source

T1 sequence (P05067 672-713): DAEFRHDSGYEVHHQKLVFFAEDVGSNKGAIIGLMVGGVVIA

| Compound | inhibition at 100 µM [1] | IC50 [2] |
| --- | --- | --- |
| COc1ccc(C2CNC(=O)C2)cc1OC1CCCC1 (stereo not drawn) [compound 14] | ~50% | – |
| O=C(COc1ccccc1)C1CCCN1 (stereo not drawn) [compound 8] | – | 34.4 µM |
| CC(C(=O)Nc1ccc(C(C)(C)C)cc1)N1CCCC1 (stereo not drawn) [compound 5] | – | 1.28 µM |
